The values below come from patent US9492471B2, “Methods of treating a disease or disorder associated with Bruton'S Tyrosine Kinase” (Celgene Avilomics Research, Inc., priority 2013, dated 2016).

Test in all cases: HotSpot kinase profiling
Common to all, as to format: biochemical

One assay has as its target T1, MARK1 (Homo sapiens, UniProt Q9P0L2).
T1 construct: purchased Reaction Biology Corp
The gist of the method:
(§1)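 Percent inhibition, averaged when run more than once and referenced to a DMSO negative control, came from a radioactive filter-binding readout on P81 paper. Reactions of kinase with freshly made substrate and cofactors ran for 2 h at room temperature.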

The target of the next assay is T2, FGFR1 (Homo sapiens, UniProt P11362).
T2 construct: purchased Reaction Biology Corp
Put shortly: as §1

The target of a further assay is T3, DCAMKL2 (Homo sapiens, UniProt Q8N568).
T3 construct: purchased Reaction Biology Corp
T3 sequence (Q8N568 1-766): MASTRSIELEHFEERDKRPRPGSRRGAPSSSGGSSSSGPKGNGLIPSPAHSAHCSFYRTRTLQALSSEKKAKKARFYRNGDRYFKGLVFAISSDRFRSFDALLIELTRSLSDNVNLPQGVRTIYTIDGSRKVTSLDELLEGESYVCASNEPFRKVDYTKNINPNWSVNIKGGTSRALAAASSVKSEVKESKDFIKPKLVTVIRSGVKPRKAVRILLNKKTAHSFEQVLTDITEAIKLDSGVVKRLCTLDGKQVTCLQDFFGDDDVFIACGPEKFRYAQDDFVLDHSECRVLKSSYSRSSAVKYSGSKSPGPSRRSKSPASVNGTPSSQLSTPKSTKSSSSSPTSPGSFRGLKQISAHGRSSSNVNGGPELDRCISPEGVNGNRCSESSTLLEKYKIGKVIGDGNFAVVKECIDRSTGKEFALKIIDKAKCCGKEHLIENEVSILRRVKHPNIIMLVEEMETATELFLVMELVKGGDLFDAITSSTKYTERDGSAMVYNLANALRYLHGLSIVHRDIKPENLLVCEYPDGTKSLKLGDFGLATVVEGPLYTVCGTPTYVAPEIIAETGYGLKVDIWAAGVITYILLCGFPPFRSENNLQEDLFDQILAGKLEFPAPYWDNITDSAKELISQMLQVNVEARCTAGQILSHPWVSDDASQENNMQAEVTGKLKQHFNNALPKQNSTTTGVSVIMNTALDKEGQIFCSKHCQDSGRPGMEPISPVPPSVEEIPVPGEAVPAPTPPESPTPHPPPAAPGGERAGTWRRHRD
The gist of the method: as §1

For another assay, the target named is T4, GLK/MAP4K3 (Homo sapiens, UniProt Q8IVH8).
T4 construct: purchased Reaction Biology Corp
T4 sequence (Q8IVH8 1-894): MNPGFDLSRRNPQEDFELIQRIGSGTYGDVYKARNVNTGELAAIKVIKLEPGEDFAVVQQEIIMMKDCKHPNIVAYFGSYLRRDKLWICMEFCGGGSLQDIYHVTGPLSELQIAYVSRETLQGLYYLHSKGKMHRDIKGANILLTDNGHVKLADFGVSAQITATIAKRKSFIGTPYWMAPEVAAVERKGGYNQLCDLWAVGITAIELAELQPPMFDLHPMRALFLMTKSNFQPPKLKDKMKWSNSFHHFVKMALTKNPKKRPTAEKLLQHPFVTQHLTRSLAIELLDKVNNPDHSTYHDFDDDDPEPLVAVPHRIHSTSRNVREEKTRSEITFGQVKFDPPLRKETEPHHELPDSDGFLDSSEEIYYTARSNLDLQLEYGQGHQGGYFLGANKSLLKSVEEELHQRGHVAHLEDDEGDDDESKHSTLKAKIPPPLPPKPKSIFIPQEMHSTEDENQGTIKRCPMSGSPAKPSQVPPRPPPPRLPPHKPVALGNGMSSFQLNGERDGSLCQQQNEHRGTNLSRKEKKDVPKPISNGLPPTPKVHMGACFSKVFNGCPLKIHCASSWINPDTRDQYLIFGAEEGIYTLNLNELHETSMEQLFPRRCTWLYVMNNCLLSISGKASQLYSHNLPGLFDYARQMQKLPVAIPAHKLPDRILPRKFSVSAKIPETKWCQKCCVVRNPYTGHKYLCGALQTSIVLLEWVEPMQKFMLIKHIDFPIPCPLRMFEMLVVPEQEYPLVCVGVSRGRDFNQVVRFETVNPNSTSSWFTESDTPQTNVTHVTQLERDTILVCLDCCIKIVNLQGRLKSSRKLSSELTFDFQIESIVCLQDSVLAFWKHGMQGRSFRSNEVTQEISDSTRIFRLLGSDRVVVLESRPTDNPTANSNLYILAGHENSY
Put shortly: as §1

Setting [1] is: read-out: % Enzyme Activity (relative to DMSO controls) Run 1.
[2] abbreviates: read-out: % Enzyme Activity (relative to DMSO controls) Run 2.

Molecules are shown by their SMILES. Read-outs that look alike come from different tables or passages of the source.

T2 sequence (P11362 22-822): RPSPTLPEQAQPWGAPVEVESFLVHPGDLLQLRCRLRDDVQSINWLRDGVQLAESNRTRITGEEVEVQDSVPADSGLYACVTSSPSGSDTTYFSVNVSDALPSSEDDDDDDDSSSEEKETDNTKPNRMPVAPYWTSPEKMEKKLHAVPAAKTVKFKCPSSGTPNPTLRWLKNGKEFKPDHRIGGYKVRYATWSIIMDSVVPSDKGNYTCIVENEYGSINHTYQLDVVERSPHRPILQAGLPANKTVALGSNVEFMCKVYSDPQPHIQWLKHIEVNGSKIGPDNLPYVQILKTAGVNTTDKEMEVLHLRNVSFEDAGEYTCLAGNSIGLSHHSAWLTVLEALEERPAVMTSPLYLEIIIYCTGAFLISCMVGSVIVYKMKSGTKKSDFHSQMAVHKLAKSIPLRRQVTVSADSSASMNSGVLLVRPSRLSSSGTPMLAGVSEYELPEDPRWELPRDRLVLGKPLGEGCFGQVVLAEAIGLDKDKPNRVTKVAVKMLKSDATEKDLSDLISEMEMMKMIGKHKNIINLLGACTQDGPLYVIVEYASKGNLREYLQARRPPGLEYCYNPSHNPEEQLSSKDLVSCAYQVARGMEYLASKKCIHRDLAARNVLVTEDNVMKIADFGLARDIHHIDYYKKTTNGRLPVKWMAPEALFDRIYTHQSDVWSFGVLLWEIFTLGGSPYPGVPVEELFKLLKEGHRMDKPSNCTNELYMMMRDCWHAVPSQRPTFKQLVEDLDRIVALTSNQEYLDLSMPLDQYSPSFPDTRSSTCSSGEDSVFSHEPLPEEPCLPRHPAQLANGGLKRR
T1 sequence (Q9P0L2 whole entry): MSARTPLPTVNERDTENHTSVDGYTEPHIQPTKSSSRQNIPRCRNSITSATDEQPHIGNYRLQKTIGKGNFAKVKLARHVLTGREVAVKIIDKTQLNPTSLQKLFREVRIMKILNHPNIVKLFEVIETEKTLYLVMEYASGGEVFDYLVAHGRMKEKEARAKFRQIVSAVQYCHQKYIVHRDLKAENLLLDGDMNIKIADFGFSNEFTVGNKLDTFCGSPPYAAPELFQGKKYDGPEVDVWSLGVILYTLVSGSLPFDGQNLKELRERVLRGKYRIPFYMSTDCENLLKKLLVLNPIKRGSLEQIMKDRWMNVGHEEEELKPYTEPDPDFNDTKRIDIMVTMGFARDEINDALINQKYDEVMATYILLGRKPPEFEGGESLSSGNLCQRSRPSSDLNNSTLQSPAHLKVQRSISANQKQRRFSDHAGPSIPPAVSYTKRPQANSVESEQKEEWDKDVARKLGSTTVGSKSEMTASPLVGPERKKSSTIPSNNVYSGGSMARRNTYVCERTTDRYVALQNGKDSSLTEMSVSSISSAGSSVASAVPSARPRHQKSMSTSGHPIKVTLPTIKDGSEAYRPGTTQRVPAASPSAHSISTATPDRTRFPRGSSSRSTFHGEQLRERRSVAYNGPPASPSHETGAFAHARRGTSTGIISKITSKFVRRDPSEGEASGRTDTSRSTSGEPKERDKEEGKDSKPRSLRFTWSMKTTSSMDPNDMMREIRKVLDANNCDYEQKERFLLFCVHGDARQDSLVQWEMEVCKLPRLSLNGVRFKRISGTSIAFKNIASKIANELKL

Broadly, the inhibition is the drop in the measured response relative to a control, in per cent. As to `C=CC(=O)Nc1cccc(Nc2nc(Nc3ccc(OCCOC)c(F)c3)ncc2F)c1` [Compound 2], the inhibition at 3 µM was 5.86% against MARK1, 59.7% against FGFR1, 0.18% against DCAMKL2 and -5.08% on GLK/MAP4K3. Moreover, the remaining activity at 3 µM is 90.9% at MARK1 (setting [1]); 97.3% at MARK1 (setting [2]); 41.4% on FGFR1 (setting [1]); 39.3% on FGFR1 (setting [2]); 100% at DCAMKL2 (setting [1]); 99.5% at DCAMKL2 (setting [2]). In addition, the remaining activity at 3 µM at GLK/MAP4K3 (setting [1]) worked out at 102%; on GLK/MAP4K3 (setting [2]), 108%.
